Measurements taken from US10035790B2, “RORγ modulators” (BRISTOL-MYERS SQUIBB COMPANY, priority 2012, dated 2018).

Molecular target: T1, ligand binding domain of human RORγ (A262-S507) (Homo sapiens, UniProt P51449)
T1 construct: made in house; host or cells: E. coli
T1 sequence (P51449 262-507): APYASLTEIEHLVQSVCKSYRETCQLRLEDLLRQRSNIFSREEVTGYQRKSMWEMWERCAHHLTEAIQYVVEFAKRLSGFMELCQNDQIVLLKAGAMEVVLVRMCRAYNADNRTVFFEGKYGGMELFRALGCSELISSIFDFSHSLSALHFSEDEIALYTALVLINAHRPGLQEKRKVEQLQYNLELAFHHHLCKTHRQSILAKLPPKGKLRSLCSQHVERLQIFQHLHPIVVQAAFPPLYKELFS
Assay: General RORγ SPA binding assay (competition with [3H]25-hydroxycholesterol)
Details: RORγ SPA binding assay, inhibition of [3H]25-hydroxycholesterol binding; read-out: IC50
Procedure, shortened: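 Step one: compound meets 50 nM nickel-purified, His-tagged protein from E. coli for 15 min at room temperature (PBS, 0.5% fatty acid free BSA). Step two: radioligand is added for another 15 min. Step three: SPA beads are added for 30 min before scintillation reading and IC50 fitting.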

Row | IC50 | Compound
1 | 0.24 µM | Cc1nc(C)c(-c2nnc(-c3ccnc(C(F)(F)F)n3)o2)c(C2CCN(C(=O)Cc3ncccc3Cl)CC2)n1 [Compound C42, 4-{1-[(3-Chloropyridin-2-yl)acetyl]piperidin-4-yl}-2,6-dimethyl-5-{5-[2-(trifluoromethyl)pyrimidin-4-yl]-1,3,4-oxadiazol-2-yl}pyrimidine]
2 | 0.0112 µM | Cc1nc(C)c(-c2nnc(-c3ccnc(C(F)(F)F)n3)o2)c(C2CCN(C(=O)C(F)(F)c3c(F)cccc3F)CC2)n1 [Compound C43, 4-{1-[(2,6-difluorophenyl)(difluoro)acetyl]piperidin-4-yl}-2,6-dimethyl-5-{5-[2-(trifluoromethyl)pyrimidin-4-yl]-1,3,4-oxadiazol-2-yl}pyrimidine]
3 | 0.0032 µM | Cc1nc(C)c(-c2nnc(-c3ccnc(C(F)(F)F)n3)o2)c(C2CCN(C(=O)C(F)(F)c3ccccc3F)CC2)n1 [Compound C44, 4-{1-[Difluoro(2-fluorophenyl)acetyl]piperidin-4-yl}-2,6-dimethyl-5-{5-[2-(trifluoromethyl)pyrimidin-4-yl]-1,3,4-oxadiazol-2-yl}pyrimidine]
4 | 0.123 µM | Cc1nc(C)c(-c2nnc(-c3ccnc(C(F)(F)F)n3)o2)c(C2CCN(C(=S)Nc3c(F)cccc3F)CC2)n1 [Compound C46, N-(2,6-Difluorophenyl)-4-(2,6-dimethyl-5-{5-[2-(trifluoromethyl)pyrimidin-4-yl]-1,3,4-oxadiazol-2-yl}pyrimidin-4-yl)piperidine-1-carbothioamide]
5 | 0.0806 µM | Cc1nc(C)c(-c2nnc(-c3ccnc(C(F)(F)F)n3)o2)c(C2CCN(C(=S)Nc3ccccc3C(F)(F)F)CC2)n1 [Compound C47, 4-(2,6-Dimethyl-5-{5-[2-(trifluoromethyl)pyrimidin-4-yl]-1,3,4-oxadiazol-2-yl}pyrimidin-4-yl)-N-[2-(trifluoromethyl)phenyl]piperidine-1-carbothioamide]
6 | 0.0639 µM | Cc1nc(N)nc(C2CCN(C(=O)Nc3c(F)cccc3F)CC2)c1-c1nnc(-c2ccnc(C(F)(F)F)n2)o1 [Compound C48, 4-(2-Amino-6-methyl-5-{5-[2-(trifluoromethyl)pyrimidin-4-yl]-1,3,4-oxadiazol-2-yl}pyrimidin-4-yl)-N-(2,6-difluorophenyl)piperidine-1-carboxamide]
7 | 0.0233 µM | Cc1nc(N)nc(C2CCN(C(=O)Nc3c(F)cccc3C(F)(F)F)CC2)c1-c1nnc(-c2ccnc(C(F)(F)F)n2)o1 [Compound C49, 4-(2-Amino-6-methyl-5-{5-[2-(trifluoromethyl)pyrimidin-4-yl]-1,3,4-oxadiazol-2-yl}pyrimidin-4-yl)-N-[2-fluoro-6-(trifluoromethyl)phenyl]piperidine-1-carboxamide]
8 | 0.0141 µM | CSc1nc(C)c(-c2nnc(-c3cccc(C(F)(F)F)n3)o2)c(C2CCN(C(=O)Nc3c(F)cccc3F)CC2)n1 [Compound C58, N-(2,6-Difluorophenyl)-4-[6-methyl-2-(methylthio)-5-{5-[6-(trifluoromethyl)pyridin-2-yl]-1,3,4-oxadiazol-2-yl}pyrimidin-4-yl]piperidine-1-carboxamide]
9 | 0.0279 µM | Cc1nc(N)nc(C2CCN(C(=O)Nc3c(F)cccc3F)CC2)c1-c1nnc(-c2cccc(C(F)(F)F)n2)o1 [Compound C59, 4-(2-Amino-6-methyl-5-{5-[6-(trifluoromethyl)pyridin-2-yl]-1,3,4-oxadiazol-2-yl}pyrimidin-4-yl)-N-(2,6-difluorophenyl)piperidine-1-carboxamide]
10 | 0.204 µM | COc1nc(C)c(-c2nnc(-c3cccc(C(F)(F)F)n3)o2)c(C2CCN(C(=O)Nc3c(F)cccc3F)CC2)n1 [Compound C60, N-(2,6-Difluorophenyl)-4-[6-methyl-2-(methyloxy)-5-{5-[6-(trifluoromethyl)pyridin-2-yl]-1,3,4-oxadiazol-2-yl}pyrimidin-4-yl]piperidine-1-carboxamide]
11 | 1.14 µM | COc1nc(C)c(-c2nnc(-c3ccnc(C(F)(F)F)n3)o2)c(C2CCN(C(=O)Nc3c(F)cccc3F)CC2)n1 [Compound C61, N-(2,6-Difluorophenyl)-4-[6-methyl-2-(methyloxy)-5-{5-[2-(trifluoromethyl)pyrimidin-4-yl]-1,3,4-oxadiazol-2-yl}pyrimidin-4-yl]piperidine-1-carboxamide]
12 | 0.157 µM | Cc1ncc(-c2nnc(-c3ccnc(C(F)(F)F)n3)o2)c(C2CCN(C(=O)Cc3c(F)cccc3F)CC2)n1 [Compound C62, 4-{1-[(2,6-difluorophenyl)acetyl]piperidin-4-yl}-2-methyl-5-{5-[2-(trifluoromethyl)pyrimidin-4-yl]-1,3,4-oxadiazol-2-yl}pyrimidine]
13 | 0.281 µM | Cc1nc(C)c(-c2nc(-c3cccc(C(F)(F)F)c3)no2)c(C2CCN(C(=O)Nc3c(F)cccc3F)CC2)n1 [Compound C63, N-(2,6-difluorophenyl)-4-(2,6-dimethyl-5-{3-[3-(trifluoromethyl)phenyl]-1,2,4-oxadiazol-5-yl}pyrimidin-4-yl)piperidine-1-carboxamide]
14 | 0.183 µM | Cc1nc(C)c(-c2nc(-c3cccc(C(F)(F)F)c3)no2)c(C2CCN(C(=O)Nc3c(F)cccc3C(F)(F)F)CC2)n1 [Compound C64, 4-(2,6-Dimethyl-5-{3-[3-(trifluoromethyl)phenyl]-1,2,4-oxadiazol-5-yl}pyrimidin-4-yl)-N-[2-fluoro-6-(trifluoromethyl)phenyl]piperidine-1-carboxamide]
15 | 2.73 µM | Cc1nc(C)c(-c2nc(-c3cccc(C(F)(F)F)c3)no2)c(C2CCN(C(=O)c3c(F)cccc3F)CC2)n1 [Compound C65, 4-{1-[(2,6-Difluorophenyl)carbonyl]piperidin-4-yl}-2,6-dimethyl-5-{3-[3-(trifluoromethyl)phenyl]-1,2,4-oxadiazol-5-yl}pyrimidine]
16 | 0.0659 µM | Cc1nc(C)c(-c2ncc(-c3cccc(Cl)c3)o2)c(C2CCN(C(=O)Cc3c(F)cccc3F)CC2)n1 [Compound C66, 5-[5-(3-Chlorophenyl)-1,3-oxazol-2-yl]-4-{1-[(2,6-difluorophenyl)acetyl]piperidin-4-yl}-2,6-dimethylpyrimidine]
17 | 0.111 µM | Cc1nc(C)c(-c2ncc(-c3cccc(Cl)c3)o2)c(C2CCN(C(=O)Nc3c(F)cccc3F)CC2)n1 [Compound C67, 4-{5-[5-(3-Chlorophenyl)-1,3-oxazol-2-yl]-2,6-dimethylpyrimidin-4-yl}-N-(2,6-difluorophenyl)piperidine-1-carboxamide]

Row | Compound | IC50
18 | Cc1nc(C)c(-c2nnc(-c3ccnc(C(F)(F)F)n3)o2)c(C2CCN(C(=O)Oc3ccccc3Cl)CC2)n1 [Compound C45, 2-Chlorophenyl 4-(2,6-dimethyl-5-{5-[2-(trifluoromethyl)pyrimidin-4-yl]-1,3,4-oxadiazol-2-yl}pyrimidin-4-yl)piperidine-1-carboxylate] | 0.0428 µM
19 | Cc1nc(N)nc(C2CCN(C(=O)Oc3c(F)cccc3F)CC2)c1-c1nnc(-c2ccnc(C(F)(F)F)n2)o1 [Compound C50, 2,6-Difluorophenyl 4-(2-amino-6-methyl-5-{5-[2-(trifluoromethyl)pyrimidin-4-yl]-1,3,4-oxadiazol-2-yl}pyrimidin-4-yl)piperidine-1-carboxylate] | 0.0061 µM
20 | Cc1nc(N)nc(C2CCN(C(=O)Oc3ccccc3Cl)CC2)c1-c1nnc(-c2ccnc(C(F)(F)F)n2)o1 [Compound C51, 2-Chlorophenyl 4-(2-amino-6-methyl-5-{5-[2-(trifluoromethyl)pyrimidin-4-yl]-1,3,4-oxadiazol-2-yl}pyrimidin-4-yl)piperidine-1-carboxylate] | 0.0105 µM
21 | Cc1nc(N)nc(C2CCN(C(=O)Oc3ccccc3F)CC2)c1-c1nnc(-c2ccnc(C(F)(F)F)n2)o1 [Compound C52, 2-Fluorophenyl 4-(2-amino-6-methyl-5-{5-[2-(trifluoromethyl)pyrimidin-4-yl]-1,3,4-oxadiazol-2-yl}pyrimidin-4-yl)piperidine-1-carboxylate] | 0.0087 µM
22 | Cc1nc(N)nc(C2CCN(C(=O)Oc3ccc(F)cc3)CC2)c1-c1nnc(-c2ccnc(C(F)(F)F)n2)o1 [Compound C53, 4-Fluorophenyl 4-(2-amino-6-methyl-5-{5-[2-(trifluoromethyl)pyrimidin-4-yl]-1,3,4-oxadiazol-2-yl}pyrimidin-4-yl)piperidine-1-carboxylate] | 0.0373 µM
23 | Cc1nc(N)nc(C2CCN(C(=O)Oc3cc(F)ccc3F)CC2)c1-c1nnc(-c2ccnc(C(F)(F)F)n2)o1 [Compound C54, 2,5-Difluorophenyl 4-(2-amino-6-methyl-5-{5-[2-(trifluoromethyl)pyrimidin-4-yl]-1,3,4-oxadiazol-2-yl}pyrimidin-4-yl)piperidine-1-carboxylate] | 0.0211 µM
24 | Cc1nc(N)nc(C2CCN(C(=O)Oc3cccc(F)c3)CC2)c1-c1nnc(-c2ccnc(C(F)(F)F)n2)o1 [Compound C55, 3-Fluorophenyl 4-(2-amino-6-methyl-5-{5-[2-(trifluoromethyl)pyrimidin-4-yl]-1,3,4-oxadiazol-2-yl}pyrimidin-4-yl)piperidine-1-carboxylate] | 0.0192 µM
25 | Cc1nc(N)nc(C2CCN(C(=O)Oc3ccc(F)cc3F)CC2)c1-c1nnc(-c2ccnc(C(F)(F)F)n2)o1 [Compound C56, 2,4-Difluorophenyl 4-(2-amino-6-methyl-5-{5-[2-(trifluoromethyl)pyrimidin-4-yl]-1,3,4-oxadiazol-2-yl}pyrimidin-4-yl)piperidine-1-carboxylate] | 0.0247 µM
26 | COc1ccccc1OC(=O)N1CCC(c2nc(N)nc(C)c2-c2nnc(-c3ccnc(C(F)(F)F)n3)o2)CC1 [Compound C57, 2-(methyloxy)phenyl 4-(2-amino-6-methyl-5-{5-[2-(trifluoromethyl)pyrimidin-4-yl]-1,3,4-oxadiazol-2-yl}pyrimidin-4-yl)piperidine-1-carboxylate] | 0.0236 µM
